{"source": "patent US20260216201A1", "about": "(priority 2025, published 2026)", "origin": "cited, not measured here", "conditions": "n-octanol/buffer pH 7.4"}
{"smiles": "Cc1cnc(NC(=O)C2=C(O)c3ccccc3S(=O)(=O)N2C)s1", "note": "[Meloxicam, 4-hydroxy-2-methyl-N-(5 methyl-2-thiazolyl)-2H-1,2-benzothiazine-3-carboxamide-1,1-dioxide]", "values": [{"measurement": "apparent partition coefficient (log P)", "result": 0.1}]}
